Some test systems named below: UO-31 renal; HCC-2998 colon; HL-60(TB) leukemia; SF-268 CNS; KM12 colon; A498 renal; SN12C renal; SK-MEL-5 melanoma; MALME-3M melanoma; SK-OV-3 ovarian.
Common to all, as to test: NCI tumour cell line growth inhibition, 48 h

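Dose response: 5 concentrations. Exposure: 48 h. Format: 96-well plates. Endpoint: linear interpolation; highest concentration if not reached. Abbreviation: GI50, concentration required for 50% inhibition of growth. At the TGI there is no net growth.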

In the case of `O=C1/C=C/[C@@H](O)[C@@H]2C[C@@H](O)C[C@H]2/C=C/CCC[C@H](CCc2ccc3ncccc3c2)O1`, the GI50 was 0.299 µM with UO-31 renal; 0.252 µM in the test on HCC-2998 colon; 0.268 µM in the test with HL-60(TB) leukemia; 0.322 µM with SF-268 CNS; 0.175 µM in the test with KM12 colon; 0.1 µM with A498 renal. Besides, the GI50 in the test on SN12C renal is 0.334 µM; in the test with SK-MEL-5 melanoma, 0.0567 µM; in the test on MALME-3M melanoma, 0.208 µM; in the test on SK-OV-3 ovarian it was 0.336 µM. Also, the TGI is 20 µM in the test on UO-31 renal; 4.99 µM in the test with HCC-2998 colon; 0.691 µM in the test on HL-60(TB) leukemia; greater than 100 µM in the test on SF-268 CNS; greater than 100 µM in the test on SN12C renal; 0.162 µM with SK-MEL-5 melanoma. The TGI in the test on MALME-3M melanoma was 0.678 µM; with SK-OV-3 ovarian, greater than 32.1 µM.

`Cc1cc(-c2nnc(/C=C/c3ccc4c(c3)OCO4)o2)n[nH]1`: the GI50 was 14.7 µM in the test with UO-31 renal; 10.7 µM with HCC-2998 colon; 1.34 µM in the test with HL-60(TB) leukemia; 6.5 µM in the test with SF-268 CNS; 2.15 µM in the test on KM12 colon; 7.54 µM in the test on A498 renal. Besides, the GI50 in the test on SN12C renal was 30 µM; in the test with SK-MEL-5 melanoma it was 13 µM; with MALME-3M melanoma, 8.96 µM; in the test on SK-OV-3 ovarian it was 21.1 µM. Further, the TGI in the test with UO-31 renal was greater than 50 µM; in the test with HCC-2998 colon it was greater than 50 µM; in the test on HL-60(TB) leukemia, 3.99 µM; in the test with SF-268 CNS, greater than 50 µM; with KM12 colon, greater than 50 µM; in the test on A498 renal, 40.7 µM. Besides, the TGI is greater than 50 µM in the test with SN12C renal, 39 µM with SK-MEL-5 melanoma, greater than 50 µM with MALME-3M melanoma and greater than 50 µM with SK-OV-3 ovarian.

In the case of `Cc1cccc(C)c1NC(=O)CCC/C(CC(=O)c1ccc(F)cc1)=N\NC(=O)C(=O)NN`, the TGI in the test on UO-31 renal, with HCC-2998 colon, with HL-60(TB) leukemia, with SF-268 CNS, in the test with KM12 colon and in the test with A498 renal was greater than 100 µM throughout. Moreover, the TGI in the test with SN12C renal, in the test with SK-MEL-5 melanoma, in the test with MALME-3M melanoma and with SK-OV-3 ovarian was greater than 100 µM throughout.

Consider `Cc1ccc(S(=O)(=O)N/N=C(\c2nc3ccc([N+](=O)[O-])cc3[nH]c2=O)C(O)c2ccc([N+](=O)[O-])cc2)cc1` (stereo not drawn), for which the TGI in the test with UO-31 renal was greater than 100 µM; with HCC-2998 colon it was greater than 100 µM; in the test on HL-60(TB) leukemia, 95.6 µM; in the test with SF-268 CNS it was greater than 100 µM; with A498 renal, greater than 100 µM; with SN12C renal, greater than 100 µM. Further, the TGI in the test on SK-MEL-5 melanoma, in the test with MALME-3M melanoma and with SK-OV-3 ovarian was greater than 100 µM each time.

Regarding `NC(=S)N=Nc1c(O)[nH]c2c(Cl)cc(Cl)cc12`, the TGI with UO-31 renal was greater than 100 µM; in the test on HCC-2998 colon, greater than 100 µM; in the test on HL-60(TB) leukemia it was 49.6 µM; in the test on KM12 colon it was 42.2 µM; with A498 renal it was greater than 100 µM; with SN12C renal, 52.8 µM. Further, the TGI was 28.2 µM with SK-MEL-5 melanoma, 35.2 µM in the test on MALME-3M melanoma and greater than 100 µM with SK-OV-3 ovarian.

For `Nc1c(C(=O)Nc2ccccn2)sc2nc3c(cc12)C(O)CCC3` (stereo not drawn), the GI50 in the test on UO-31 renal is 3.68 µM; with HCC-2998 colon it was 1.85 µM; with HL-60(TB) leukemia, 0.562 µM; in the test on SF-268 CNS, 2.94 µM; in the test on KM12 colon, 1.95 µM; in the test with A498 renal it was 1.53 µM. The GI50 with SN12C renal is 2.57 µM; in the test with SK-MEL-5 melanoma, 1.47 µM; in the test on MALME-3M melanoma it was 19.3 µM. The TGI with UO-31 renal, in the test with HCC-2998 colon, in the test with HL-60(TB) leukemia, with SF-268 CNS, with KM12 colon and in the test on A498 renal was greater than 50 µM throughout. Moreover, the TGI in the test on SN12C renal, in the test on SK-MEL-5 melanoma and in the test with MALME-3M melanoma was greater than 50 µM each time.

Take `O=C(NCCc1ccccc1)Nc1ccc2cc3ccc(NC(=O)NCCc4ccccc4)cc3nc2c1`: the GI50 is greater than 100 µM in the test on UO-31 renal; 0.447 µM with HCC-2998 colon; 0.266 µM in the test with HL-60(TB) leukemia; 1.64 µM in the test on KM12 colon; 1.35 µM with A498 renal; 0.42 µM with SN12C renal. The GI50 in the test with SK-MEL-5 melanoma is 1.5 µM; in the test on MALME-3M melanoma, 0.59 µM; in the test on SK-OV-3 ovarian it was 1.51 µM. In addition, the TGI in the test on UO-31 renal was greater than 100 µM; with HCC-2998 colon, 1.68 µM; in the test on HL-60(TB) leukemia, 0.774 µM; with KM12 colon, 4.42 µM; in the test with A498 renal it was 8.44 µM; in the test with SN12C renal, 1.6 µM. The TGI in the test with SK-MEL-5 melanoma amounted to 3 µM; in the test on MALME-3M melanoma, 1.97 µM; in the test with SK-OV-3 ovarian, 3 µM.

For the molecule `O=C(Cc1nc2sc3c(c2c(=O)[nH]1)CCCC3)Nc1ccccc1`, the TGI in the test on HCC-2998 colon, in the test with HL-60(TB) leukemia, with SF-268 CNS, in the test on KM12 colon, in the test with A498 renal and in the test with SN12C renal was greater than 100 µM throughout. In addition, the TGI with SK-MEL-5 melanoma, in the test on MALME-3M melanoma and in the test on SK-OV-3 ovarian was greater than 100 µM throughout.

Take `CC(C)(C)OP(=O)(OC(C)(C)C)C(O)c1ccc(/C=C(\C#N)C(N)=O)cc1` (stereo not drawn): the TGI in the test with UO-31 renal, in the test with HCC-2998 colon, in the test with HL-60(TB) leukemia, in the test with SF-268 CNS, in the test on KM12 colon and in the test with A498 renal was greater than 100 µM in each case. The TGI with SN12C renal, with MALME-3M melanoma and in the test on SK-OV-3 ovarian was greater than 100 µM throughout.

As for `O=C1CC(c2c(-c3ccccc3)[nH]c3ccccc23)C(=O)N1c1ccccc1` (stereo not drawn), the TGI in the test on UO-31 renal, with HCC-2998 colon, in the test on HL-60(TB) leukemia, with KM12 colon, with A498 renal and in the test on SK-MEL-5 melanoma was greater than 100 µM throughout. Also, the TGI in the test with MALME-3M melanoma and in the test with SK-OV-3 ovarian was greater than 100 µM throughout.

The record behind these values is PubChem BioAssay (NCI).
